# In paper PMC5578202, “Bioaccessibility, Intestinal Permeability and Plasma Stability of Isorhamnetin Glycosides from Opuntia ficus-indica (L.)” (International Journal of Molecular Sciences, 2017):
# Like-named read-outs stand apart in the source and are kept apart here.
# Legend:
# [1] = Simulated in vitro digestion (oral, gastric, intestinal): recovery percentage / bioaccessibility; format: in vitro ADME; conditions: human-simulated digestion
# Method: The simulated in vitro digestion model was performed based on the methodology described by Garrett et al., with some modifications. Isorhamnetin aglycones and O. ficus-indica extract were subjected to digestion in triplicate. A three-step procedure was applied to simulate the digestive processes in the mouth, stomach, and small intestine. The digestion started with an amount of extract that contained an equivalent of 10 mg of isorhamnetin (60 mg) or 10 mg of isorhamnetin standard. An α-amylase solution (75 Units/mL) was added to 20 mL of solution, adjusted to pH 6.9, which was incubated for 10 min. This mixture was shaken using a VWR® Incubating orbital shaker (Thorofare, NJ, USA) for 10 min at 37 °C and 55 rpm. The gastric digestion started by adjusting the pH to 2 with 1 M HCl and, after, 2 mL of porcine-pepsin solution was added (40 mg/mL in 0.1 M HCl). This mixture was shaken in an incubator for 1 h at 37 °C and 95 rpm. For the intestinal digestion, the solution was previously adjusted to pH 5.3 with 0.9 M NaHCO3 and then a mixture of bile salts and pancreatin (6 mL containing porcine-pancreatin (2 mg/mL), and bile salts (12 mg/mL) dissolved in a NaHCO3 solution (100 mM), were added. Concentrations of pancreatin and bile extract in the final solution were 0.4 and 2.4 mg/mL, respectively. Then, the solution was adjusted to pH 7.5 by adding 1N NaOH. The mixture was shaken in an incubator for 2 h at 37 °C and 95 rpm. The enzyme reaction was inactivated by placing the sample in a hot water bath (80 °C for 2 min). At the end of the process, the digested samples were centrifuged at 13,000× g and 4 °C for 5 min (Thermo Scientific SL 16R centrifuge, Osterode, Germany). The resulting supernatant, which was considered the bioaccessible or absorbable fraction, was recovered. The recovery percentage of each compound was calculated based on the concentration in the supernatant recovered after each phase (oral, gastric, and intestinal) of the in vitro digestion. This fraction was also tested for permeability and potential bioavailability of the isorhamnetin glycosides present in the O. ficus-indica extract.
# [2] = test system: Caco-2/HT-29 cell monolayer; experiment: Permeability across Caco-2/HT-29 (75:25) co-culture monolayer; format: in vitro ADME, human; conditions: for Efflux ratio [Papp(BL-AP)/Papp(AP-BL)]: Caco-2/HT-29 (Figure 2b); for Apparent permeability coefficient apical to basolateral, Papp(AP-BL): Caco-2/HT-29 co-culture, digested samples
# Method: (§1) Caco-2 and HT-29 cell lines were obtained from ATCC (American Tissue Culture Collection, Rockville, MD, USA). Cells were cultured in DMEM-F12 supplemented with 10% fetal bovine serum and were maintained at 37 °C in 5% CO2. Before the start of the permeability experiments, the cytotoxicity of isorhamnetin and the O. ficus-indica extract on Caco-2/HT-29 (75:25) co-culture were tested to ensure that the viability of the cells was over 90%. Permeability experiments were performed according to Xie et al. and Hubatsch et al. with slight modifications. Caco-2 and HT-29 co-culture cell monolayer (75:25) were seeded on 6-well transwell plates, with inserts having a polycarbonate membrane with a surface area of 4.71 cm^2 and a pore diameter of 0.4 µm (Costar, Corning, NY, USA) at a final seeding density of 1 × 10^6 cells/insert, cultured for 21 days. Caco-2 cell monolayers were washed with warm HBSS medium (pH 7.4) and then digested samples of isorhamnetin aglycone or O. ficus-indica extract were added to the apical side (AP: 1.5 mL), whereas the receiving compartment or basolateral side (BL: 2.5 mL) contained the corresponding volume of HBSS. Plates with transwell inserts were incubated at 37 °C in an orbital shaking incubator at 100 rpm. Aliquots of 1 mL were withdrawn from both compartments at 15, 30, 60 and 120 min, and fresh HBSS was added to replace the withdrawn volume. Samples were immediately frozen and preserved at −20 °C until HPLC analysis. All experiments were performed in triplicate.
# (§2) The apparent permeability coefficient (Papp) was calculated from the cumulative amount permeated versus the time profile according the following Equation (1): Papp = (dQ/dt) × (V/A × C0) (1) where dQ/dt is the change in drug concentration in the receiver solution (µM/s), V represents the volume of the solution in the receiving compartment (mL), A denotes the membrane surface area (cm^2), and C0 is the initial concentration in the donor compartment (µM).
# (§3) The integrity of the monolayers was measured at the beginning and the end of the experiment using the paracellular permeability of lucifer yellow (LY). Fluorescence was measured at 530 nm (emission) and 485 nm (excitation) using a microplate reader (Synergy HT, BioTek, Winooski, VM). The data from membranes displaying an LY apparent permeability coefficient (Papp) > 1 × 10^−6 cm/s were excluded.
# Caco-2 cell monolayer = conditions: cited from earlier work
# [3] = cited from earlier work
# [4] = Permeability across Caco-2/HT-29 (75:25) co-culture monolayer; format: in vitro ADME, human; conditions: human, pH 7.4
# Method: as §1, §2, §3
# [5] = Plasma stability / pharmacokinetics after intravenous dose in rats; design: species or system rat; conditions: male, Wistar, in vivo, intravenous dose 2 mg/kg
# Method: Twenty-seven male Wistar rats, weighing approximately 200 g (eight weeks old), were divided in nine groups of three animals each. One group was taken as a control and received only a saline solution through the caudal vein. Four groups received an intravenous dose (2 mg/kg) of the O. ficus-indica extract and the last four groups received the commercial isorhamnetin standard. The dosage was determined based on results previously reported by Antunes-Ricardo et al.. Animals were anaesthetized with ketamine/xilazyne (60 mg/kg; 10 mg/kg), and then blood was extracted by intracardiac puncture at different sampling times (0.25, 0.5, 1 and 1.5 h). This procedure was randomized to avoid any bias results. After blood extraction, the animals were sacrificed by cervical dislocation. Plasma was obtained as previously described (see Section 4.6) and the samples were stored at −20 °C until analysis.
# Plasma samples were spiked with 25 µL of quercetin (30 µg/mL) as an internal standard. Then, plasma samples were submitted to an acid hydrolysis with 2 M HCl for 180 min at 80 °C. Then, samples were extracted with 100% methanol (10:1, v/v), centrifuged, and the resulting supernatants were quantified by HPLC-PDA. The area under the concentration-time curve (AUC0−1.5 h) was calculated based on the linear trapezoidal method. The elimination half-life (t1/2) was determined by linear regression of the terminal portion of the plasma concentration-time data. The plasma clearance (CLplasma) was calculated by multiplying the volume of distribution, Vd, by the elimination constant, Kel, according to the following Equation (3): CLplasma: Vd × Kel (3)
# [6] = design: method as in Duan et al. [24]; conditions: ref Duan et al. [24]; cited from earlier work
# [7] = cited from earlier work; for Recovery after intestinal digestion: ref Ydjedd et al. [40]
# [8] = intestinal phase, pH 7.5, pancreatin and bile salts
# [9] = Caco-2 monolayer, ref Xie et al. [47]
compound,measurement,setting,value
isorhamnetin-3-O-glucosyl-rhamnoside [IGR],Recovery percentage after gastric digestion phase,"[1]; gastric phase, pH 2, pepsin","96.8 ± 0.9 ^A,a %"
same,Recovery percentage after intestinal digestion phase,[1]; [8],"81.0 ± 4.6 ^A,b %"
same,Recovery percentage after oral digestion phase,"[1]; oral phase, pH 6.9, α-amylase","99.6 ± 3.8 ^A,a %"
same,Efflux ratio [Papp(BL-AP)/Papp(AP-BL)],[2],3.1
same,"Apparent permeability coefficient apical to basolateral, Papp(AP-BL)",[2],1.72 ± 0.01 × 10^−6 cm/s
same,Papp(AP-BL),"Caco-2 cell monolayer; Caco-2 monolayers, ref Tian et al. [23]",2.9e-07 cm/s
O=c1cc(-c2ccccc2)oc2cc(O)cc(O)c12 [chrysin],Permeability basolateral to apical relative to apical to basolateral,Caco-2 cell monolayer; ref [36],two-fold higher
O=c1c(O[C@@H]2O[C@H](CO)[C@H](O)[C@H](O)[C@H]2O)c(-c2ccc(O)c(O)c2)oc2cc(O)cc(O)c12 [Quercetin-3-galactoside],Efflux ratio compared with quercetin-3-glucoside,Caco-2 cell monolayer; ref Duan et al. [24],higher efflux ratio
same,Concentration in plasma,"[3]; after ingestion of cranberry juice, ref Wang et al. [55]",10 to 15 ng/mL
"COc1cc(-c2oc3cc(O)cc(O)c3c(=O)c2O)ccc1O [I, isorhamnetin]","recovery at 2 h, 0.33 mg/mL","[1]; intestinal phase, pH 7.5, pancreatin and bile salts, read-out: Recovery percentage after intestinal digestion phase",74.3 ± 7.4%
same,"recovery at 10 min, 0.5 mg/mL","[1]; oral phase, pH 6.9, α-amylase, read-out: Recovery percentage after oral digestion phase",35 ± 2.4%
same,recovery at 1 h,"[1]; simulated in vitro digestion, gastric phase, pH 2, pepsin, read-out: Recovery percentage after gastric digestion phase",49 ± 3.4%
same,efflux ratio at 120 min,"[4]; Caco-2/HT-29 (Figure 2b), read-out: Efflux ratio [Papp(BL-AP)/Papp(AP-BL)]",0.6
same,Papp A→B at 120 min,"[4]; Caco-2/HT-29 co-culture, digested samples, read-out: Apparent permeability coefficient apical to basolateral, Papp(AP-BL)",4.74 ± 0.02 ×10⁻⁶ cm/s
same,Papp basolateral to apical relative to Papp apical to basolateral,[2]; Caco-2/HT-29,two-fold lower
same,AUC(0-t),"[5]; rat plasma, isorhamnetin after acid hydrolysis, read-out: AUC0–1.5 h of isorhamnetin",104 ± 4.89 µM·h
same,half-life,"[5]; rat plasma, read-out: Elimination half-life t1/2 (converted)",38.4 min
same,clearance,"[5]; rat, read-out: CL plasma",7.44 ± 1.21 mL/min
same,Papp(AP-BL),"Caco-2 cell monolayer; Caco-2 cells, ref Lan et al. [35]",2.28 ± 0.09 × 10^−6 cm/s
same,Papp,"Caco-2 cell monolayer; Caco-2 monolayer, tested alone, ref Xie et al. [47]",1.61 ×10⁻⁶ cm/s
same,Increase of Papp in combination with kaempferol,Caco-2 cell monolayer; [9],1.33 fold
same,Increase of Papp in combination with quercetin,Caco-2 cell monolayer; [9],2.38 fold
same,pKa,[6],6.3
same,Bioaccessibility after a simulated digestion,"[7]; from almond skins, ref [19]",25.1 ± 7.0%
isorhamnetin-3-O-glucosyl-rhamnosyl-rhamnoside [IGRR],Recovery percentage after gastric digestion phase,"[1]; gastric phase, pH 2, pepsin","96.0 ± 4.4 ^A,a %"
same,Recovery percentage after intestinal digestion phase,[1]; [8],"79.5 ± 1.8 ^A,b %"
same,Recovery percentage after oral digestion phase,"[1]; oral phase, pH 6.9, α-amylase","99.1 ± 3.8 ^A,a %"
same,Efflux ratio [Papp(BL-AP)/Papp(AP-BL)],[2],5.9
same,"Apparent permeability coefficient apical to basolateral, Papp(AP-BL)",[2],1.03 ± 0.04 × 10^−6 cm/s
isorhamnetin-3-O-glucosyl-rhamnosyl-pentoside [IGRP],Recovery percentage after gastric digestion phase,"[1]; gastric phase, pH 2, pepsin","96.2 ± 0.4 ^A,a %"
same,Recovery percentage after intestinal digestion phase,[1]; [8],"80.3 ± 1.9 ^A,b %"
same,Recovery percentage after oral digestion phase,"[1]; oral phase, pH 6.9, α-amylase","93.8 ± 5.2 ^A,a %"
same,Efflux ratio [Papp(BL-AP)/Papp(AP-BL)],[2],5.2
same,"Apparent permeability coefficient apical to basolateral, Papp(AP-BL)",[2],1.28 ± 0.02 × 10^−6 cm/s
C[C@@H]1O[C@@H](Oc2c(-c3cc(O)c(O)c(O)c3)oc3cc(O)cc(O)c3c2=O)[C@H](O)[C@H](O)[C@H]1O [myricetin-rhamnoside],Recovery after a simulated digestion process,[7]; ref Ortega et al. [39],51.5%
same,Recovery after intestinal digestion,[7],40.2%
quercetin-3-glucosyl-rhamnoside,Decrease in levels after intestinal digestion phase compared with gastric step,[7]; ref Tenore et al. [37],18.6%
isorhamnetin-3-O-glucosyl-pentoside [IGP],Recovery percentage after gastric digestion phase,"[1]; gastric phase, pH 2, pepsin","93.5 ± 3.3 ^A,a %"
same,Recovery percentage after intestinal digestion phase,[1]; [8],"73.3 ± 3.5 ^A,b %"
same,Recovery percentage after oral digestion phase,"[1]; oral phase, pH 6.9, α-amylase","96.6 ± 4.7 ^A,a %"
same,Efflux ratio [Papp(BL-AP)/Papp(AP-BL)],[2],3.0
C[C@@H]1O[C@@H](Oc2c(-c3ccc(O)c(O)c3)oc3cc(O)cc(O)c3c2=O)[C@H](O)[C@H](O)[C@H]1O [quercetin rhamnoside],Recovery after intestinal digestion,[7],47.9%
COc1ccc([C@@H]2CC(=O)c3c(O)cc(O[C@@H]4O[C@H](CO[C@@H]5O[C@@H](C)[C@H](O)[C@@H](O)[C@H]5O)[C@@H](O)[C@H](O)[C@H]4O)cc3O2)cc1O [hesperetin-7-O-rutinoside],tmax,"[3]; after oral consumption, ref [32]",288 ± 132 min
"O=c1c(O)c(-c2ccc(O)c(O)c2)oc2cc(O)cc(O)c12 [quercetin as aglycone, quercetin]",AUC0–24 h,"[3]; in humans, ref [54]",2500 ± 2200 ng·h/mL
same,AUC0–1440 min of quercetin,[3]; ref Petersen et al. [56],62 ± 12 µmol·min/L
COc1ccc([C@@H]2CC(=O)c3c(O)cc(O[C@@H]4O[C@H](CO)[C@@H](O)[C@H](O)[C@H]4O)cc3O2)cc1O [hesperetin-7-O-glucoside],Bioavailability higher than hesperetin-7-O-rutinoside,"[3]; human, in vivo",76%
same,tmax,"[3]; in vivo, po",30 ± 6 min
same,Improvement of bioavailability on removing the rhamnose moiety from hesperetin-7-glucosyl-rhamnoside,[3]; in vivo,two-fold
